Molecular target: T1, Vitamin D Receptor (VDR) (Bos taurus, UniProt Q28037)
T1 construct: Bovine thymus 1α,25-dihydroxyvitamin D3 receptor was purchased; purchased YAMASA SHOYU KABUSHIKI KAISHA lot.110431; host or cells: bovine thymus (tissue preparation)
T1 sequence (Q28037 1-426): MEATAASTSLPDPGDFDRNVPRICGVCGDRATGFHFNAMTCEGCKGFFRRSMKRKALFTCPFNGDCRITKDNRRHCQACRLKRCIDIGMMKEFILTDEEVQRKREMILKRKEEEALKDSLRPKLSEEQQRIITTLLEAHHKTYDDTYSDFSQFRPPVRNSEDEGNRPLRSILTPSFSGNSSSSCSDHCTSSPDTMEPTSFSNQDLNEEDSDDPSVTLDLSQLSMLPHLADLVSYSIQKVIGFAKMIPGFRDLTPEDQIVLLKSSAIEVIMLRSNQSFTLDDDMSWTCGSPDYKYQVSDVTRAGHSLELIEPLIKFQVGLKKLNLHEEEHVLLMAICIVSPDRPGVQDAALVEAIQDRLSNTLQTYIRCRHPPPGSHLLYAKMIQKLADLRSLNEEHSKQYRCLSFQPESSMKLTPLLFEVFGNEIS
Assay: Assay for binding to vitamin D receptor (VDR), displacement of [3H]-1α,25-dihydroxyvitamin D3
Conditions: relative value with that of 1α,25-dihydroxyvitamin D3 taken as 100; bovine thymus receptor; [3H]-1α,25-dihydroxyvitamin D3 0.1 nM; overnight at 4° C.
Procedure: Assay for Binding to Vitamin D Receptor (VDR)
Bovine thymus 1α,25-dihydroxyvitamin D3 receptor was purchased from YAMASA SHOYU KABUSHIKI KAISHA (lot.110431) and 1 ampule (approximately 25 mg) of the receptor was dissolved in 55 mL of 0.05 M phosphate 0.5M potassium buffer (pH 7.4) just before use. Ethanol solutions (50 μl) of 1α,25-dihydroxyvitamin D3 and Compounds 31-35 of the present invention at various concentrations were prepared, mixed with aliquots (500 μl, 0.23 mg protein) of the receptor solution and pre-incubated at room temperature for 1 hour. To the resultant mixtures, [^3H]-1α,25-dihydroxyvitamin D3 was added at the final concentration of 0.1 nM, followed by incubation overnight at 4° C.
The reaction mixtures were treated with dextran coated charcoal for 30 minutes at 4° C. to separate the bound and free forms of [^3H]-1α,25-dihydroxyvitamin D3, and centrifuged at 3000 rpm for ten minutes. Each of the resultant supernatants (500 μl) was mixed with ACS-II (9.5 ml) (AMERSHAM, England) for radioactivity measurement.
The binding properties of Compounds 31-35 of the present invention were expressed in relative values with that of 1α,25-dihydroxyvitamin D3 taken as 100.

Compound	Binding property
C=C1C(=CC=C2CCCC3(C)C2CCC3C(C)CCCC(C)(C)O)CC(O)C(CCO)C1O [Compound 32, (5Z,7E)-(1S,2S,3R,20R)-9,10-seco-5,7,10(19)-cholestatriene-2-(2′-hydroxyethyl)-1,3,25-triol]	70
C=C1/C(=C\C=C2/CCC[C@]3(C)[C@@H]([C@H](C)CCCC(C)(C)O)CC[C@@H]23)C[C@@H](O)[C@H](CC)[C@@H]1O [Compound 34, (5Z,7E)-(1S,2S,3R,20R)-9,10-seco-5,7,10(19)-cholestatriene-2-ethyl-1,3,25-triol]	40
C=C1C(=CC=C2CCCC3(C)C2CCC3C(C)CCCC(C)(C)O)CC(O)C(CCC)C1O [Compound 35, (5Z,7E)-(1S,2S,3R,20R)-9,10-seco-5,7,10(19)-cholestatriene-2-propyl-1,3,25-triol]	20
(5Z,7E)-(1S,2S,3R,20R)-9,10-seco-5,7,10(19)-cholestatriene-2-(3′-hydroxypropyl)-1,3,25-triol [Compound 33]	300
(5Z,7E)-(1S,2S,3R,20R)-9,10-seco-5,7,10(19)-cholestatriene-2-hydroxymethyl-1,3,25-triol [Compound 31]	20
